The record followed here is PMC12592400, “A unique inhibitor conformation selectively targets the DNA polymerase PolC of Gram-positive priority pathogens” (Nature Communications, 2025).

Assay [1] has as its system E. faecium strains with polC mutations (A1281T, F1276I, F1276L, F1276S). In words: Cross-resistance MIC of reduced susceptible E. faecium strains. It is filed as cell-based, Enterococcus faecium. To be noted: for raise of MIC by A1281T: E. faecium polC A1281T versus WT (Table 2); for MIC: Enterococcus faecium. How it is done: Strains with reduced susceptibility to ACX compounds were generated by WuXi Apptec on behalf of Acurx Pharmaceuticals, Inc., using E. faecium ATCC 700221 as parental strain.
Agar MICs for the wild-type strain were determined on Blood agar (Huankai). Compounds and linezolid were dissolved in 100% DMSO and vancomycin in ultrapure water. Strains were inoculated onto agar plates, incubated at 37 °C for 20-24 h after which colonies were suspended in sterile 0.9% saline at different bacterial concentrations. 5 μL of bacterial suspensions was individually spotted on agar plates supplemented with compounds at different concentrations, resulting in final concentrations of 10^–1, 10^–2, 10^–3, 10^–4, 10^–5, 10^–6, and 10^–7 per spot. After incubation for 20-24 h, bacterial growth was assessed by visual inspection.
For frequency of resistance (FOR) studies, colonies from the agar plate were suspended into sterile 0.9% saline to get 10^8-10^9 CFU bacterial cells per mL. […] The suspensions were also serially diluted with 0.9% saline and spotted onto agar to determine the actual inoculum. All agar plates were incubated at 37 °C for 48 h. FOR was defined as colony number on each compound-containing plate per CFU number of actual inoculum. Resistant colonies were subcultured on the corresponding compound plates to confirm that colonies were resistant and stable.
Confirmed resistant colonies were used for cross-resistance studies, as described above.
Paired-end short read sequencing data from selected mutants (generated by BGISEQ) as well as the corresponding wild-type parental strain was analysed against the reference genomes for E. faecium strain ATCC 700221 (https://genomes.atcc.org/genomes/f9d13a716ccb4f78) using Geneious R10.2.6 (Biomatters Ltd). Variants were called using the Find Variants/SNPs function with a minimum coverage of 10 and a minimum frequency of 0.8. […] This identified the following mutations in the polC gene: D1103Y in strain Efa4; F1276L in strains Efa030, Efa038, and Efa039; F1276I in strains Efa1 and Efa037; F1276S in strain Efa3; A1281T in strains Efa036, Efa040 and Efa041. Strains Efa036, Efa039, and Efa040 each had only one polymorphism identified.

Assay [2] deals with Escherichia coli ATCC 25922. In words: Broth microdilution MIC. It is filed as cell-based. As for the experimental part: (§1) Minimal inhibitory concentrations (MICs) were determined by WuXi Apptec, on behalf of Acurx Pharmaceuticals, Inc., for the Gram-positive pathogens: Enterococcus faecium ATCC 700221 (VRE; vancomycin-resistant), Enterococcus faecalis ATCC 29212, Staphylococcus aureus NRS384 (MRSA; methicillin-resistant), Staphylococcus aureus ATCC 29213 (MSSA; methicillin-sensitive), and Streptococcus pneumoniae ATCC 49619 (PRSP; penicillin-resistant). As a control, Gram-negative Escherichia coli ATCC 25922 was included. All strains were obtained from ATCC with the exception of Staphylococcus aureus NRS384, which was obtained from NARSA (Network on Antimicrobial Resistance in Staphylococcus aureus, now part of BEI resources). Bacteria were cultured according to the manuals provided by the suppliers and stored in 25% glycerol (final concentration) at –80 °C.
(§2) Bacterial strains were streaked out onto MHA plates (Mueller-Hinton II Agar; BD-211438) and incubated at 37 °C for 20 h except for S. pneumoniae and Enterococci, which were streaked on blood agar (Huankai-24070). S. pneumoniae was incubated in 5% CO2. Single colonies were suspended in 5 mL sterile saline, the turbidity was adjusted to 0.20 (Siemens MicroScan turbidity metre; equal to ~1.0 × 10^8 colony forming units (CFU)/mL) and then diluted 200x in MHIIB (Mueller-Hinton II […] (BD-211438)) medium. The MHIIB media was supplemented with 5% Lysed Horse Blood (Shanghai YuanMu Biological Technology Co. Ltd. YM-U161) for S. pneumoniae.
(§3) ACX compounds were dissolved in pure DMSO (Sigma 276855) to a concentration of 20 mg/mL. From this, twofold serial dilutions (from […]) in DMSO were transferred to a 96-well source-plate (Axygen-wipp02280) with pure DMSO as a control. 2 µL from the source plate was then transferred into 96-well culture plates (Costar 3788) and inoculated with 198 µL of the bacterial suspension so that each well contained ~5.0 × 10^5 CFU/mL bacteria, 1% DMSO and serially diluted compounds at 0 µg/mL and 0.0625-64 µg/mL in 100 µl medium. For NRS384, which was tested in a separate experiment, 99 µL of bacterial suspension was added to 1 µL of compound. The plates were incubated in ambient atmosphere at 37 °C for 20 h.

The test system of assay [3] is Enterococcus faecalis ATCC 29212. In words: Broth microdilution MIC. It is filed as cell-based. How it is done:
as §1, §2, §3
(In general: Dilution methods test growth across graded concentrations, often in twofold steps.)

For assay [4], the system named is Staphylococcus aureus ATCC 29213 (MSSA; methicillin-sensitive). In words: Broth microdilution MIC. It is filed as cell-based. The following applies: read-out: Measured MIC. How it is done: as §1, §2, §3
Assay [5] deals with Streptococcus pneumoniae ATCC 49619 (PRSP; penicillin-resistant). In words: Broth microdilution MIC. In kind it is cell-based. To be noted: read-out: Measured MIC. As for the experimental part: as §1, §2, §3
Assay [6] has as its system Enterococcus faecium ATCC 700221 (VRE; vancomycin-resistant). In words: Broth microdilution MIC. In kind it is cell-based. To be noted: for MIC: Enterococcus faecium, read-out: Measured MIC; for Measured MIC: Table 2, polC WT, strain ATCC 700221. How it is done:
as §1, §2, §3

Assay [7] deals with Staphylococcus aureus NRS384 (MRSA; methicillin-resistant). In words: Broth microdilution MIC. In kind it is cell-based. The following applies: read-out: Measured MIC. As for the experimental part: as §1, §2, §3
Setting [8] is: read-out: Measured MIC, polC A1281T, strain Efa036, selected on 2 mg/L ACX-641.
[9] abbreviates: read-out: Measured MIC, polC A1281T, strain Efa040, selected on 4 mg/L ACX-671.
[10] abbreviates: read-out: Measured MIC, polC F1276I, strain Efa037, selected on 4 mg/L ACX-641.
Setting [11] is: read-out: Measured MIC, polC F1276L, strain Efa030, selected on 16 mg/L ACX-728.
[12] abbreviates: read-out: Measured MIC, polC F1276S, strain Efa3, selected on 16 mg/L ACX-728.
Setting [13] is: ATCC25922, E. coli ATCC 25922, Table 1, single replicate, read-out: Measured MIC.
Where [14] appears, read: ATCC29212, E. faecalis ATCC 29212, Table 1, single replicate, read-out: Measured MIC.
The mark [15] stands for this setting: S. aureus ATCC 29213, Table 1, single replicate.
Setting [16] is: S. pneumoniae PRSP ATCC 49619, Table 1, single replicate.
Where [17] appears, read: E. faecium VRE ATCC 700221, Table 1, single replicate.
Where [18] appears, read: S. aureus MRSA NRS 384, Table 1, independent experiment.

Values after ≈ are worked out from the molar mass of the structure shown. Read-outs that look alike come from different tables or passages of the source.

As to `O=c1[nH]c(NCc2ccc3c(c2)OC(F)(F)O3)nc2c(F)nn(CCO)c12` [ACX-801, 5-(((2,2-difluorobenzo[d][1,3]dioxol-5-yl)methyl)amino)-3-fluoro-1-(2-hydroxyethyl)-1,6-dihydro-7H-pyrazolo[4,3-d]pyrimidin-7-one], the “raise of MIC by A1281T” value in assay [1] is reported as “up to 32 fold”. In addition, the MIC in assay [1] (setting [8]) is 16 µg/mL; in assay [1] (setting [9]), 32 µg/mL; in assay [1] (setting [10]), over 64 µg/mL; in assay [1] (setting [11]), 64 µg/mL; in assay [1] (setting [12]), 32 µg/mL; in assay [2] (setting [13]), over 64 µg/mL. Besides, the MIC in assay [3] (setting [14]) is 2 µg/mL (≈ 5.22 µM); in assay [4] (setting [15]), 2 µg/mL (≈ 5.22 µM); in assay [5] (setting [16]) it was 4 µg/mL (≈ 10.4 µM); in assay [6] (setting [17]), 1 µg/mL (≈ 2.61 µM); in assay [7] (setting [18]) it was 2 µg/mL (≈ 5.22 µM). Besides, in assay [6], the “Measured MIC” value was found to be 1 µg/mL. The “increased potency compared to IBZ” value in assay [6] (against Gram-positive bacteria, including MRSA and VRE (Table 1)) is 2- to 4 fold.

As to `CC(=O)NC[C@H]1CN(c2ccc(N3CCOCC3)c(F)c2)C(=O)O1` [LZD, linezolid], the MIC was 4 µg/mL in assay [1] (setting [8]); 4 µg/mL in assay [1] (setting [9]); 4 µg/mL in assay [1] (setting [10]); 4 µg/mL in assay [1] (setting [11]); 4 µg/mL in assay [1] (setting [12]); over 64 µg/mL in assay [2] (ATCC25922, read-out: Measured MIC). In addition, the MIC stood at 2 µg/mL (≈ 5.93 µM) in assay [3] (ATCC29212, read-out: Measured MIC); 4 µg/mL (≈ 11.9 µM) in assay [4]; 1 µg/mL (≈ 2.96 µM) in assay [5]; 4 µg/mL (≈ 11.9 µM) in assay [6]; 2 µg/mL (≈ 5.93 µM) in assay [7]. Besides, the “Measured MIC” value in assay [6] amounted to 4 µg/mL.

Regarding `O=c1[nH]c(NCc2ccc(Cl)c(Cl)c2)nc2ncn(CCN3CCOCC3)c12` [IBZ, N^2-(3,4-dichlorobenzyl)-7-(2-[1-morpholinyl]ethyl)guanine], the “raise of MIC by A1281T” value in assay [1] is “up to eightfold”. Also, the MIC is 16 µg/mL in assay [1] (setting [8]); 8 µg/mL in assay [1] (setting [9]); over 64 µg/mL in assay [1] (setting [10]); over 64 µg/mL in assay [1] (setting [11]); 16 µg/mL in assay [1] (setting [12]); over 64 µg/mL in assay [2] (setting [13]). Besides, the MIC in assay [3] (setting [14]) worked out at 8 µg/mL (≈ 18.9 µM); in assay [4] (setting [15]), 8 µg/mL (≈ 18.9 µM); in assay [5] (setting [16]) it was 2 µg/mL (≈ 4.72 µM); in assay [6] (setting [17]), 2 µg/mL (≈ 4.72 µM); in assay [7] (setting [18]), 8 µg/mL (≈ 18.9 µM). In assay [6], the “Measured MIC” value stood at 2 µg/mL.
